# Experimental data as given in US7842488B2, “Polynucleotides encoding a human 3-phosphoinositide- dependent protein kinase” (Medical Research Council, priority 1997, dated 2010).
# Entries after “also recorded” stand apart in the source; their conditions may differ.
# Key:
# GST-PKBα [1] = assay: Activation of GST-PKBα after stimulation of transfected 293 cells; assay type: cell-based, human; settings: versus unstimulated 293 cells
# Excerpt: Expression of GST-PKBα in 293 cells. The DNA sequence encoding PKBα was subcloned into the eukaryotic expression vector PEBG2T that has been used to overexpress GST-fusion proteins in eukaryotic cells under an EF1α promoter. A PCR reaction was set up to generate a full length cDNA encoding the PKBα gene with a BamH1site at the 5′ end of the cDNA that is in frame with the GST sequence of the PEBG2T vector and the ATG initiation codon of PKBα, and a KpnI site at the 3′ end, using the human PCMV5-HA-PKBα plasmid. The DNA sequence of the BamH1/KpnI cDNA fragment was checked and then subcloned into the unique BamH1/KpnI restriction sites on the pEBG 2T expression vector. In order to prepare GST-PKBα, 40, 10 cm diameter dishes of human embryonic kidney 293 cells were cultured and each dish transfected with 20 μg of GST PKBα expression construct using the modified calcium phosphate method described previously for overexpression of haemaglutinin tagged PKBα in 293 cells. […]
# Myc-PDK1 = assay: 32P-labelling of 293 cells: phosphorylation of Myc-PDK1; assay type: cell-based, human; settings: 5 min
# Method: (§1) ^32P-labelling of 293 cells transfected with HA-PKBα or Myc-PDK1. This was carried out essentially as described previously. Briefly, 293 cells were transfected with HA-PKBα, or with HA-PKBα plus Myc-PDK1, washed with phosphate free DMEM, incubated for 4 h with [^32P]-orthophosphate (1 mCi/ml), then stimulated with IGF1 (50 ng/ml) for 5 min. The cells were lysed, and the HA-PKBα immunoprecipitated (using 10 μg of 12CAS antibody per 10 cm dish of cells) or the Myc-PDK1 immunoprecipitated (using 10 μg of 9E10 antibody per 10 cm dish of cells). The immunoprecipitated protein was alkylated with 4-vinylpyridine, subjected to SDS/polyacrylamide gel electrophoresis, digested with trypsin and analysed by chromatography on a C18 column (Alessi et al (1996) EMBO J. 15, 6541-6551).
# In order to see if IGF1 stimulation was inducing the phosphorylation of PDK1, 293 cells were transfected with Myc-PDK1 (encoding residues 52 to 556), incubated with ^32P-phosphate, stimulated with buffer or IGF1 for 5 min and ^32P-labelled Myc-PDK1 was immunoprecipitated from the lysates. After digestion with trypsin, the resulting peptides were analysed by C18 chromatography. […] One of the in vivo phosphorylation sites on PDK1 was identified as Ser-241 which lies in the equivalent position to Thr308 of PKB in the kinase domain.
# HA-PKBα [2] = assay: 32P-labelling of transfected 293 cells: phosphorylation sites of HA-PKBα; assay type: cell-based, human; settings: 293 cells cotransfected with PDK1
# Method: FIG. 15. Overexpression of PDK1 in cells induces phosphorylation of PKBα at Thr308. 293 cells transiently transfected with either wild type HA-PKBα (panels A and C) or HA-PKBα and Myc-PDK1 (panels B and D) were incubated with ^32P-orthophosphate, then treated for 10 min without (panels A and B) or with (panels C and D) 50 ng/ml IGF1. The ^32P-labelled HA-PKBα was immunoprecipitated from the lysates, treated with 4-vinylpyridine, and electrophoresed on 1 10% polyacrylamide gel. The HA-PKBα was excised from the gel, digested with trypsin and chromatographed on a C18 column (see legend to FIG. 13) to resolve the four major phosphopeptides which are phosphorylated at Ser-124, Ser473, Thr308 and Thr450 respectively. The identity of each phosphopeptide was established by phospho-amino acid analysis and solid phase sequencing. Similar results were obtained in two separate experiments for (panels A and C), and in three separate experiments (panels B and D).
# as §1
# PDK1 [3] = assay: Endogenous PDK1 activity in lysates of IGF1-stimulated 293 cells; assay type: cell-based, human; settings: up to 10 min
# Method: PDK1 is not activated or phosphorylated by IGF1. 293 cells were serum starved for 16 h, stimulated with IGF1 lysed and the endogenous PDK1 activity present in the cell lysates was determined after chromatography on heparin-Sepharose (see Methods).
# HA-PKBα [4] = assay: HA-PKBα activity in transfected 293 cells; assay type: cell-based, human
# Method: FIG. 14. PKBα is activated by cotransfection with PDK1 in 293 cells. (A) 293 cells were transiently transfected with DNA constructs expressing either HA-PKBα or both HA-PKBα and Myc-PDK1. The cells were then stimulated for 10 min with or without 50 ng/ml IGF1, the HA-PKBα immunoprecipitated from the lysates and assayed. The results are expressed relative to the specific activity of wild type HA-PKBα in unstimulated 293 cells ([…]). No PKBα activity was detected in mock transfections in which the cells were transfected with PCMV5 vector alone (data not shown). (B) 6 μg of protein from each lysate was electrophoresed on a 10% SDS/polyacrylamide gel and immunoblotted using either a monoclonal HA-antibody to detect HA-PKBα or a monoclonal Myc-antibody to detect Myc-PDK1. The molecular mass markers are glycogen phosphorylase (97 kDa), bovine serum albumin (67 kDa) and ovalbumin (43 kDa).
# Transfection of 293 cells with HA-tagged PBKα and Myc-PDK1. Human embryonic kidney 293 cells were cultured on 10 cm diameter dishes and transfected with 2 μg/ml pCMV5 DNA constructs encoding for HA-PKBα or HA-PKBα plus Myc-PDK1 [20]. After 24 h the cells were deprived of serum for a further 16 h and then stimulated for 10 min with either […] IGF1 or Buffer. The cells were lysed in 1.0 ml of ice-cold Buffer A, the lysate centrifuged at 4° C. for 10 min at 13,000×g and HA-PKBα immunoprecipitated from aliquots of the supernatant (10 μg protein) and assayed for PKBα with the peptide RPRAATF (SEQ ID NO: 9) as described previously.
# PDK1 [5] = assay: PDK1 assay: activation of GST-PKBα by purified PDK1 with phospholipid vesicles; assay type: biochemical, rabbit; settings: lipid 10 μM in vesicles of 100 μM PtdCho, 100 μM PtdSer, 30 min at 30° C.
# Procedure, shortened: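 Two-stage assay: GST-PKBα incubated with PDK1, MgATP and phospholipid vesicles to allow activation. Reactions run 10 min at 30 °C, stopped on p81 phosphocellulose paper and washed in phosphoric acid. Basal GST-PKBα activity measured without PDK1.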
# GST-DSTPK61 = target: T1, GST-DSTPK61 (Drosophila melanogaster, UniProt Q9W0V1); assay: GST-DSTPK61 assay: activation and phosphorylation of GST-PKBα; assay type: biochemical; settings: lipid 10 μM in PtdCho/PtdSer vesicles
# T1 construct: residues 1-752 of DSTPK61 in E. coli as fusion proteins; made in house; host or cells: E. coli (pGEX-3X)
# T1 sequence (Q9W0V1 85-836 Q200H/Q201E/Q317A/G443R): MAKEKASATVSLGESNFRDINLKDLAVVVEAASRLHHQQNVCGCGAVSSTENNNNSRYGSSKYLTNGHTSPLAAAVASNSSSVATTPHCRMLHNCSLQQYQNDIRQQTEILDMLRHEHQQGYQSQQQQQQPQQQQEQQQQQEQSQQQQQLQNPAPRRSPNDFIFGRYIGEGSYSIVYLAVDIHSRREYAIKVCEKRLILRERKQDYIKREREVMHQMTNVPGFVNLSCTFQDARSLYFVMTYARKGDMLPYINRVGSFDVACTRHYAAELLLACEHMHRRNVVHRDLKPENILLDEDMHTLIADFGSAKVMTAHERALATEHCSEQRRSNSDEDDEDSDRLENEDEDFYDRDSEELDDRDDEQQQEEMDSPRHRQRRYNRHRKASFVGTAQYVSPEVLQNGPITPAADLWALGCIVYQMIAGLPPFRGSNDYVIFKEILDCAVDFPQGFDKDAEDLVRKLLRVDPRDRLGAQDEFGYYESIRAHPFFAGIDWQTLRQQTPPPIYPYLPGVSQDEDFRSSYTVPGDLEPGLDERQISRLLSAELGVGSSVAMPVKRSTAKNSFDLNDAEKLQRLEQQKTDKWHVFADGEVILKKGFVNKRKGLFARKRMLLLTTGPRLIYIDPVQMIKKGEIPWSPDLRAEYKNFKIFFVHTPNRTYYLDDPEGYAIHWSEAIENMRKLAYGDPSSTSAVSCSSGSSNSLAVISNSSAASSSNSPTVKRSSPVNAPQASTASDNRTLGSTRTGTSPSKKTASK
# Method: (§2) FIG. 12. […] In panels A and C, the assays were terminated by making the incubations 1% (by vol) in TRITON X-100™ (see Ref 21), and the increase in specific activity of GST-PKBα was determined. In panels B and D, the reactions were terminated by making the solutions 1% in SDS, the samples were subjected to SDS/polyacrylamide gel electrophoresis, and the phosphorylation was assessed by autoradiography of the Coomassie blue-stained band corresponding to GST-PKBα.
# (§3) One unit of PDK1 activity was defined as that amount required to increase the basal activity of GST-PKBα by 1 unit of activity in one min.
# PKB = PKB (Homo sapiens, UniProt P31749); settings: cited from earlier work
# Sequence of PKB (P31749 whole entry, species assumed): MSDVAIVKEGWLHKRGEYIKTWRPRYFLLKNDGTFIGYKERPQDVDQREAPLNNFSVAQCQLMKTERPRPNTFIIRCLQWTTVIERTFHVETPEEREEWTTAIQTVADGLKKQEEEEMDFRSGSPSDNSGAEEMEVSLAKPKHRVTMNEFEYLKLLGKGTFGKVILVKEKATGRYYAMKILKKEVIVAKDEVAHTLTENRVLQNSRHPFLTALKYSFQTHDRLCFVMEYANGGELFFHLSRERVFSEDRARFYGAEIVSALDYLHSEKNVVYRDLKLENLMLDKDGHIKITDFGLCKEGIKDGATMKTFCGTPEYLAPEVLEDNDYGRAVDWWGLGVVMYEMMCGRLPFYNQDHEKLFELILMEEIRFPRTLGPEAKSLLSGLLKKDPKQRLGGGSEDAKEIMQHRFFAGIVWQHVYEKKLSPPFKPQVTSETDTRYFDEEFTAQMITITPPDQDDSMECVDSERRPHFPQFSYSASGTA
# GST-PDK1 = target: T2, GST-PDK1 (Homo sapiens, UniProt O15530); assay: GST-PDK1 assay: activation and phosphorylation of GST-PKBα; assay type: biochemical; settings: for activation and phosphorylation of GST-PKBα by GST-PDK1 (in words): lipid 10 μM in PtdCho/PtdSer vesicles
# T2 construct: Residues 52-556 of PDK1 were expressed in human embryonic kidney 293 cells; made in house; host or cells: human embryonic kidney 293 cells (pEBG2T)
# T2 sequence (O15530 52-556): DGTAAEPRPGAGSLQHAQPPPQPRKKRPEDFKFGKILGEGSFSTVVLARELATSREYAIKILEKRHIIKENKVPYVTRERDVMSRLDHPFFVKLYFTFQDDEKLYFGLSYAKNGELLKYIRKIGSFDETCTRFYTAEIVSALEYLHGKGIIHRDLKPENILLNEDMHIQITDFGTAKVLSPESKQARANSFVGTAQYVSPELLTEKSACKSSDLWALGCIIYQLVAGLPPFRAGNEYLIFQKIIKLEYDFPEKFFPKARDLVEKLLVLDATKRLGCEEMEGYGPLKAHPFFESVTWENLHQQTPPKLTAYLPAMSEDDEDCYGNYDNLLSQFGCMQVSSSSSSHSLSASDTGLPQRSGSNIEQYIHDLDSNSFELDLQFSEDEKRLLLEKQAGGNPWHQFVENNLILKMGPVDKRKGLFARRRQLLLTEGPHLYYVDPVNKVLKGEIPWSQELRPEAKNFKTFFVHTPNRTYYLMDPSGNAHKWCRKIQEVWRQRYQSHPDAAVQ
# Method: as §2, §3
# PDK1 [6] = assay: Phosphorylation of GST-PKBα by PDK1 with [γ32P]ATP; assay type: biochemical, rabbit; settings: lipid 10 μM in PtdCho/PtdSer vesicles
# Method: Solutions were stored at 4° C. at concentrations 10-fold higher than those required in the assay and used within 2-4 days.
# Phosphorylation of GST-PKB ? by PDK1. The incubations were identical to the Stage 1 described above except that [γ^32P] ATP (200-400 cpm/pmol) was used instead of unlabelled ATP. The reactions were terminated by making the solution 1% (by mass) in SDS. […] The Coomassie blue-staining bands corresponding to GST-PKBα were excised and the ^32P-radioactivity associated with each band was quantified.
# GST-PKBα [7] = target: T3, GST-PKBα (Homo sapiens, UniProt P31749); assay: GST-PKBα activity and phosphorylation with lipids in the absence of PDK1; assay type: biochemical; settings: same conditions as PDK1 activation
# T3 construct: generate a full length cDNA encoding the PKBα gene; made in house; host or cells: human embryonic kidney 293 cells (pEBG2T), serum starved
# T3 sequence (P31749 whole entry): as the sequence (P31749 whole entry, species assumed) above
# Method: Assay of PDK1. The assay was carried out in two stages; in the first, GST-PKBα was incubated with PDK1 in the presence of MgATP and phospholipid vesicles to permit activation of GST-PKBα.
# After 10 min at 30° C., the reactions were terminated by spotting the reaction mixture on to p81 phosphocellulose paper. The papers were washed in phosphoric acid and analysed as described previously. […] The basal GST-PKBα activity is the activity measured in the absence of PDK1.
substance,measurement,setting,value
insulin: insulin used to stimulate 293 cells,fold activation of GST-PKBα after stimulation of 293 cells,GST-PKBα [1],20 fold
IGF1: growth factor IGF1 used to stimulate 293 cells,phosphorylation of Myc-PDK1 tryptic peptides after stimulation of 293 cells,Myc-PDK1,does not alter the phosphorylation; also recorded: did not affect
same,fold activation of GST-PKBα after stimulation of 293 cells,GST-PKBα [1],45 fold
same,further fold increase of Thr308 phosphorylation of HA-PKBα,HA-PKBα [2],4 fold
same,endogenous PDK1 activity after stimulation of 293 cells,PDK1 [3],did not result in any activation or inhibition; also recorded: did not affect
same,fold increase of HA-PKBα activity after stimulation,"HA-PKBα [4]; 293 cells transfected with HA-PKBα alone, 10 min",40 fold
same,fold increase of HA-PKBα activity after stimulation,HA-PKBα [4]; 293 cells transfected with both HA-PKBα and Myc-PDK1,70 fold
"PtdIns(4,5)P2 [Lipid 9]",activation of PDK1 (in words),PDK1 [5],no significant activation
same,activation of PDK1 (in words),"PDK1 [5]; listed as PtdIns(4,5)P2",did not activate PDK1 at all
same,activation of PDK1 (in words),PDK1 [5]; listed as lipid 9,did not activate PDK1
same,activation and phosphorylation of GST-PKBα by GST-DSTPK61 (in words),GST-DSTPK61,no activation or phosphorylation
same,"fold lower affinity of PKB than for PtdIns(3,4,5)P3 or PtdIns(3,4)P2",PKB,10 fold
same,activation and phosphorylation of GST-PKBα by GST-PDK1 (in words),GST-PDK1,no activation or phosphorylation
same,phosphorylation of GST-PKBα by PDK1 (in words),PDK1 [6],did not activate PDK1 or induce the phosphorylation
"Phosphatidylinositol 3,4-bisphosphate [PtdIns(3,4)P2]",activation of PDK1 (in words),PDK1 [5],only active in the presence of low micromolar concentrations
same,activation and phosphorylation of GST-PKBα by GST-DSTPK61 (in words),GST-DSTPK61,activated and phosphorylated GST-PKBα
same,affinity of binding to PKB (in words),PKB; via the N-terminal PH domain,micromolar affinity
same,"activation, inhibition or phosphorylation of GST-PKBα in the absence of PDK1",GST-PKBα [7],no effect
same,activation and phosphorylation of GST-PKBα by GST-PDK1 (in words),GST-PDK1,activated and phosphorylated GST-PKBα
same,fold enhancement of PDK1 activity in the presence of the inositol phospholipid,"GST-PDK1; versus absence of PtdIns(3,4,5)P3 or PtdIns(3,4)P2",about 1000 fold
